pIC50, pKi: −log10 of the molar value.
Experiments:
[1] = biological target: cAMP-dependent protein kinase catalytic subunit alpha (Homo sapiens) (UniProt P17612); experiment: PKACa Invitrogen kinase activity assay; details: Compound concentration 1.0 uM
[2] = biological target: Mitogen-activated protein kinase kinase kinase kinase 4 (Homo sapiens) (UniProt O95819); experiment: MAP4K4 Invitrogen kinase activity assay; details: Compound concentration 1.0 uM
[3] = biological target: Proto-oncogene tyrosine-protein kinase Src (Homo sapiens, UniProt P12931); experiment: SRC Invitrogen kinase activity assay
[4] = biological target: Tyrosine-protein kinase Lyn (Homo sapiens, UniProt P07948); experiment: Cerep profiling assay (LYN); design: compound concentration 10 uM
[5] = biological target: T1, Serine/threonine-protein kinase TAO3 (Homo sapiens) (UniProt Q9H2K8); experiment: TAOK3 Invitrogen kinase activity assay; details: Compound concentration 1.0 uM
T1 sequence (whole entry): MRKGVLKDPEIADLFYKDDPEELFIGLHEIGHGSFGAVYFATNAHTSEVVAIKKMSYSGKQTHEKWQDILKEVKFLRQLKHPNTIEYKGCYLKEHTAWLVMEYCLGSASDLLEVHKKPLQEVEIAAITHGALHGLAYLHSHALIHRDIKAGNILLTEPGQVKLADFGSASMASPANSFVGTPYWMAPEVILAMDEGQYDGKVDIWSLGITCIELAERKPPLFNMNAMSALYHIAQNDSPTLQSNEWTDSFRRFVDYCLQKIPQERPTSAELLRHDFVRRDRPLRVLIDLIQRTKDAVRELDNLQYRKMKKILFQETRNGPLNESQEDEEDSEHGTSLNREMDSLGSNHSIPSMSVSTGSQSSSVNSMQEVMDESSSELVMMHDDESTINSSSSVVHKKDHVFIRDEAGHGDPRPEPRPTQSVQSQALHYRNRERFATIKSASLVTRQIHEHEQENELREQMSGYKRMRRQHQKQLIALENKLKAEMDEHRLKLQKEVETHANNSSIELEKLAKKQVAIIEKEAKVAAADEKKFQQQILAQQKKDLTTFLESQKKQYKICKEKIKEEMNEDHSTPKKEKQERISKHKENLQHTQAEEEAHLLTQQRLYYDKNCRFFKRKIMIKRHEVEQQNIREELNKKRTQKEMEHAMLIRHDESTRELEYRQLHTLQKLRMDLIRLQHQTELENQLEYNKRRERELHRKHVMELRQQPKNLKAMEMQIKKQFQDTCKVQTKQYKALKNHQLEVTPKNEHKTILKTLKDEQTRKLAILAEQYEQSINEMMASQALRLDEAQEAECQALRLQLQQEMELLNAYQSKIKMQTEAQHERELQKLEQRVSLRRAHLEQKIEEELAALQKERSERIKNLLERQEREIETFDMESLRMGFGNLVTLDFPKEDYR

[6] = biological target: Kappa-type opioid receptor (Homo sapiens) (UniProt P41145); details: Compound concentration 10.0 uM
[7] = biological target: T2, Tyrosine-protein kinase JAK3 (Homo sapiens) (UniProt P52333); details: Compound concentration 1.0 uM
T2 sequence (whole entry): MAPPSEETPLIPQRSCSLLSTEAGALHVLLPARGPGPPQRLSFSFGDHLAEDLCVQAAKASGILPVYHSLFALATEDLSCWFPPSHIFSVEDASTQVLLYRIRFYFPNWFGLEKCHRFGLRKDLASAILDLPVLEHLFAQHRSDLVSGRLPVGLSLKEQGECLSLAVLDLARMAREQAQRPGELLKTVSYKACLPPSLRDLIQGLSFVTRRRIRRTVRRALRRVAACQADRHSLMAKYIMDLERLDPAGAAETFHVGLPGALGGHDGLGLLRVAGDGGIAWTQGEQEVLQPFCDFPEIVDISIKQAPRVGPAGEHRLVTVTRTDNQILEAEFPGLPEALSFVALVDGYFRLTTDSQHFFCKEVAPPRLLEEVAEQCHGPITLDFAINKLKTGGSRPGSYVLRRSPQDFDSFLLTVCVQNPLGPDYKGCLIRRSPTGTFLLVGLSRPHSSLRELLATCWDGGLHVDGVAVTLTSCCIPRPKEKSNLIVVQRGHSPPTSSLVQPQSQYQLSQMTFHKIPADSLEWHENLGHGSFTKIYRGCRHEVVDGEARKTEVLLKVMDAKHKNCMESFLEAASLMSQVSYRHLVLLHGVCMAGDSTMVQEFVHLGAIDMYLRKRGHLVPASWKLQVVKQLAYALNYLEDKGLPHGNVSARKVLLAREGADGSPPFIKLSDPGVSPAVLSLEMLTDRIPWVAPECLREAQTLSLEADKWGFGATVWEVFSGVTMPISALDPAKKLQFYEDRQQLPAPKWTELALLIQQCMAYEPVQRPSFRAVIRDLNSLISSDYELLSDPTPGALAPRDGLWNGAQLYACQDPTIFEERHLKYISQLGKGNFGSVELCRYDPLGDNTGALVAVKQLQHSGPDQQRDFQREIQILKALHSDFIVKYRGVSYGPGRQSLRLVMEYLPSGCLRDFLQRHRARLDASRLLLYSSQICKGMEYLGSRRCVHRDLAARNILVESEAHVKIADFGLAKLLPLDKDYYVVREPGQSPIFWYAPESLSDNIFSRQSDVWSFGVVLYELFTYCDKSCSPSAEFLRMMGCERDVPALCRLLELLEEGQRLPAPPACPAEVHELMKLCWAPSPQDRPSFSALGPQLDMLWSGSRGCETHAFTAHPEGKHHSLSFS

D(1A) dopamine receptor = D(1A) dopamine receptor (Homo sapiens, UniProt P21728); experiment: GPCRScan assay: inhibition of D1; design: radioligand conc. used [nm] 0.6 – 1.3, parental cells HEKT
[8] = biological target: Beta-2 adrenergic receptor (Homo sapiens) (UniProt P07550); details: Compound concentration 10.0 uM
Chain of Beta-2 adrenergic receptor (Homo sapiens) (P07550 whole entry, looked up): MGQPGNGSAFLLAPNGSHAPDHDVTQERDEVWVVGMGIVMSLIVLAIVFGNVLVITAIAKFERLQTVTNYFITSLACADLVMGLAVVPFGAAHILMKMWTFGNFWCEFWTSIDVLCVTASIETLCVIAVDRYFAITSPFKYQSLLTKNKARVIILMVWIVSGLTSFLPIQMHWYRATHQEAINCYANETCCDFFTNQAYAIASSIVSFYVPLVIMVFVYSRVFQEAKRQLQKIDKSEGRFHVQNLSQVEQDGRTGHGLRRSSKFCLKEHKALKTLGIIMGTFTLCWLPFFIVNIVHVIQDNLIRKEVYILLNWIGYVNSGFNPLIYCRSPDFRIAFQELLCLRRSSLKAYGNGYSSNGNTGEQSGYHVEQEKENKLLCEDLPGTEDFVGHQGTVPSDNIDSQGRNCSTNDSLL

Chain of Proto-oncogene tyrosine-protein kinase Src (P12931 2-536 limits assumed): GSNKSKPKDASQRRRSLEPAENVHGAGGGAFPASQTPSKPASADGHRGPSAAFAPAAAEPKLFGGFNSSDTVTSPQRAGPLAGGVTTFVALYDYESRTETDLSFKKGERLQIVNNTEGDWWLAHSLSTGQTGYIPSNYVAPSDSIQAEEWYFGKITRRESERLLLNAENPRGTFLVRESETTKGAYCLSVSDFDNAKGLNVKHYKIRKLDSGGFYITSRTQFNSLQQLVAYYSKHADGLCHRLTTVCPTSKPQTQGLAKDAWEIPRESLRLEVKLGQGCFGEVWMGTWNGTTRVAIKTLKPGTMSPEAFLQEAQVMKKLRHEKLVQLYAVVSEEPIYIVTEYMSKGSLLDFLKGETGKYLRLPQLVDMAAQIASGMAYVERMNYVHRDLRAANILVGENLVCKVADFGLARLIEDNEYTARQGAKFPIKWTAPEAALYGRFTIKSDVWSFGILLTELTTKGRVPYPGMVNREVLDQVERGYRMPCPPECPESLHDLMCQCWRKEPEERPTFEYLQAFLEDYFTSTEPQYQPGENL
Chain of D(1A) dopamine receptor (P21728 whole entry): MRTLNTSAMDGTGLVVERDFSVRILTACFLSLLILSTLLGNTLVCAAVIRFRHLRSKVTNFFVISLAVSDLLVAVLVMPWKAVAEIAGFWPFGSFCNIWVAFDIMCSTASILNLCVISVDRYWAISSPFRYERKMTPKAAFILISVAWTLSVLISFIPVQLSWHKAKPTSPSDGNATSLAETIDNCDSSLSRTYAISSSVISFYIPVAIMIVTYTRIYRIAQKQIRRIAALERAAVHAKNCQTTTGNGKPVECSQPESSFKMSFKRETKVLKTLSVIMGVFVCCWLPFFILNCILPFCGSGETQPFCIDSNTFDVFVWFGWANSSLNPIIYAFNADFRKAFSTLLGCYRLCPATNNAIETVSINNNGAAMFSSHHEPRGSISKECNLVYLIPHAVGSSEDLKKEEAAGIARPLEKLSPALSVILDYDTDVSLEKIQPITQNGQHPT
Chain of Kappa-type opioid receptor (Homo sapiens) (P41145 whole entry): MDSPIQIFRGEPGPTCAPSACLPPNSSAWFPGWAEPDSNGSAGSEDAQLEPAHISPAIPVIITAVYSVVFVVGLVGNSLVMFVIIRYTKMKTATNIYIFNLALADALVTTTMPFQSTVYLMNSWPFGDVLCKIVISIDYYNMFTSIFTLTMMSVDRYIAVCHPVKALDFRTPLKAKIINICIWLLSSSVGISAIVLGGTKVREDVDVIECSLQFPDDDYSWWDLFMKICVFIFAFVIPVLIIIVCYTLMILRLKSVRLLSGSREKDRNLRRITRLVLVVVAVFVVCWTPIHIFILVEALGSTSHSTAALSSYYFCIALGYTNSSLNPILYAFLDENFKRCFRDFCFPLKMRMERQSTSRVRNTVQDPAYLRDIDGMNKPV
Chain of Mitogen-activated protein kinase kinase kinase kinase 4 (Homo sapiens) (O95819 2-1239 limits assumed): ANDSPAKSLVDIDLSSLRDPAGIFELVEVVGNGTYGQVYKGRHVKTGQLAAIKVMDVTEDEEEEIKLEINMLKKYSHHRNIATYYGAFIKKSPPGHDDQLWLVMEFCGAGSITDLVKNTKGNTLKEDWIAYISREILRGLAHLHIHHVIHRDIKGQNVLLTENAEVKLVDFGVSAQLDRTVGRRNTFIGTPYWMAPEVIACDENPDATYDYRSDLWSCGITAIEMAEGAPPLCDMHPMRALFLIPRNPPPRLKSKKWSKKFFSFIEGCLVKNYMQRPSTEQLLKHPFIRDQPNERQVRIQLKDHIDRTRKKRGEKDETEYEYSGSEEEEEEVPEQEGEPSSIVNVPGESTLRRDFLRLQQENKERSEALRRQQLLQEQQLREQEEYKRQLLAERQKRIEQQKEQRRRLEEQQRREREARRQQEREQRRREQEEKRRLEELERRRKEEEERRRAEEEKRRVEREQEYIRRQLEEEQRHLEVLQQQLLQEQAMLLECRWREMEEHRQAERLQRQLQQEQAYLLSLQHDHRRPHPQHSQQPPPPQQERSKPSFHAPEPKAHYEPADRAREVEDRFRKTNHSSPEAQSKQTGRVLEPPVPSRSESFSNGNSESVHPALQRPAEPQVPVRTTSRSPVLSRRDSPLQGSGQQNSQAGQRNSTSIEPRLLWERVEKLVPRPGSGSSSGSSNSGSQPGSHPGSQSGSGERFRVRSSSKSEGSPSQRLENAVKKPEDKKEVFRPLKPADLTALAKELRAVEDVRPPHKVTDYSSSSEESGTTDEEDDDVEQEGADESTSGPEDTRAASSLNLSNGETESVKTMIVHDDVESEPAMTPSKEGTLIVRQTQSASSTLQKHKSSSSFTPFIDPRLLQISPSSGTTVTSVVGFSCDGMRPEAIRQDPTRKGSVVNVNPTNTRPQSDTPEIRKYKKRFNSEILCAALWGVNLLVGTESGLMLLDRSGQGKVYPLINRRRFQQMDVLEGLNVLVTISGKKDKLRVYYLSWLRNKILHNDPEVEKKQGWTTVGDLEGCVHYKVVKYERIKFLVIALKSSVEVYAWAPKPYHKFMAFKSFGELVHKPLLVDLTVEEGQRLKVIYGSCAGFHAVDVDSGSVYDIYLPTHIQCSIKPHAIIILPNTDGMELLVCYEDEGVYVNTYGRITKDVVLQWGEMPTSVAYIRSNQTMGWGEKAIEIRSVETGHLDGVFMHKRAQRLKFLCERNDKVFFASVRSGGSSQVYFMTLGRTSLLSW
Chain of Tyrosine-protein kinase Lyn (P07948 whole entry): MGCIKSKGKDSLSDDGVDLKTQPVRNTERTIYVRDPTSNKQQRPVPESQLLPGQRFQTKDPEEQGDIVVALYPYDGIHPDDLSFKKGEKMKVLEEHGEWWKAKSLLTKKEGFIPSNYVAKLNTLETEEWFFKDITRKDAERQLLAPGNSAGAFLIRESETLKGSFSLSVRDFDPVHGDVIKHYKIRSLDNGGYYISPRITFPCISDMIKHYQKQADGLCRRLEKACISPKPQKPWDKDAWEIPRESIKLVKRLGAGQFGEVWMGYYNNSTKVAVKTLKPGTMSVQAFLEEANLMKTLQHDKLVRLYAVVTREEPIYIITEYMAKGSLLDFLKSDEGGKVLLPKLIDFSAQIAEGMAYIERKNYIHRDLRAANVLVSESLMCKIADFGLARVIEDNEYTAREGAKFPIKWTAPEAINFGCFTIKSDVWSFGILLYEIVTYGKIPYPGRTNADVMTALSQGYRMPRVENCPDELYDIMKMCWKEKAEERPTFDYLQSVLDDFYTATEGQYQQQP

Compound	inhibition [1]	inhibition [2]	pIC50 [3]	inhibition ([3]; Compound concentration 1.0 uM)	IC50 [4]	inhibition [5]	inhibition [6]	inhibition [7]	pKi (D(1A) dopamine receptor)	inhibition [8]
CNC(=O)c1ccc(Nc2ncc(C(F)(F)F)c(NCc3nccnc3N(C)S(C)(=O)=O)n2)cc1 [DEFACTINIB]	29%	28%	< 6.00	58%	1.1 µM (not active)	66%	10.8%	94%	5.00	–
CN(c1ccnc(CNc2nc(Nc3ccc4c(c3)CC(=O)N4)ncc2C(F)(F)F)n1)S(C)(=O)=O [PF-00911705]	–	–	–	–	–	–	–	–	–	15.3%

From ChEMBL document CHEMBL4507299, “Data for DCP probe PF-04554878” (2021)
